Source: US12403195B2, “Sensitizing cells to proton radiation” (Humanetics Corporation, priority 2017, dated 2025)
Like-named read-outs stand apart in the source and are kept apart here.

Experiments:
[1] = system: H460 human non-small cell lung cancer (NSCLC) cells; assay: Clonogenic cell survival after radiation, H460 cells; assay type: cell-based; conditions: for Genistein (D0): 5 μM nanoparticulate genistein 24 hours before radiation; for DMF (Dose Modifying Factor): 5 μM nanoparticulate genistein vs vehicle, radiosensitization defined as DMF>1.1
Description: (§1) In the experiments described herein, a R10.5M5 double scattered proton beam (a proton beam with a maximum range of 10.5 cm where the SOBP comprises the final 5 cm) was utilized with precise positioning of culture dishes at specific points at the entrance, middle, and end of the SOBP. For this beam, the “low LET” was at 2 cm depth, corresponding to about 4 keV/μM, and the high LET was at 10 cm depth, corresponding to about 30 keV/μM. As used herein, the term “low LET” refers to about one to about ten (e.g., about one to three, two to four, three to five, four to six, five to seven, six to eight, seven to nine, or eight to ten) keV/μM unrestricted LET as determined from tables of proton stopping power in liquid water, available from the National Institute of Standards and Technology (stopping power and range tables for protons; “PSTAR”). The term “high-LET” refers to about 20 to 40 (e.g., 20 to 25, 25 to 30, 30 to 35, or 35 to 40) keV/μM, again as determined from PSTAR unrestricted LET tables.
(§2) Studies were conducted to determine whether a nanoparticulate genistein formulation affects cellular radiosensitivity to protons with increasing LET. Normal and cancer cell lines were exposed to low, intermediate, or high LET proton radiation. These experiments used the H1299 and H460 NSCLC cell lines, which are relevant to lung cancer research during medical radiation exposure as well as nonmedical or accidental radiation exposure. These cell lines were derived from human cancer patients and have well-known radiobiologic properties, with H1299 being relatively less radiosensitive. Both lines harbor Ras pathway activating mutations (H460, KRAS; H1299, NRAS). MRC5 human lung fibroblasts also were used as representative normal cells. Each cell line was obtained from the American Type Culture Collection (ATCC) and tested for mycoplasma regularly. Clonogenic cell survival studies were performed as described elsewhere (Cengel et al., Neoplasia 9(4):341-348, 2007). Briefly, cells were plated 24 hours prior to radiation at about 50% confluence. […] Cells were radμated using either 250 KVp x-rays or protons with lower vs. higher LET. […]
(§3) Relative radiosensitivity was numerically compared using a standard variable, D0 (the dose of radiation needed to reduce the surviving fraction by a factor of 1/e), which was determined from the positive solution to the quadratic equation of the form: βD^2+αD−1=0, where α and β are determined from the LQ survival curve fit as above. The Dose Modifying Factor (DMF) was determined by the quotient: […]

H1299 human NSCLC cells = assay: Clonogenic cell survival after radiation, H1299 cells; assay type: cell-based; conditions: for Genistein (D0): 5 μM nanoparticulate genistein 24 hours before radiation; for DMF (Dose Modifying Factor): 5 μM nanoparticulate genistein vs vehicle
Description: as §1
Studies were conducted to determine whether a nanoparticulate genistein formulation affects cellular radiosensitivity to protons with increasing LET. Normal and cancer cell lines were exposed to low, intermediate, or high LET proton radiation. These experiments used the H1299 and H460 NSCLC cell lines, which are relevant to lung cancer research during medical radiation exposure as well as nonmedical or accidental radiation exposure. These cell lines were derived from human cancer patients and have well-known radiobiologic properties, with H1299 being relatively less radiosensitive. Both lines harbor Ras pathway activating mutations (H460, KRAS; H1299, NRAS). MRC5 human lung fibroblasts also were used as representative normal cells. Each cell line was obtained from the American Type Culture Collection (ATCC) and tested for mycoplasma regularly. Clonogenic cell survival studies were performed as described elsewhere (Cengel et al., Neoplasia 9(4):341-348, 2007). Briefly, cells were plated 24 hours prior to radiation at about 50% confluence. […] Cells were radμated using either 250 KVp x-rays or protons with lower vs. higher LET. To vary the proton LET, cell dishes were placed at a depth of 2 cm (D2, low LET) or 10 cm (D10, high LET) in a R10.5M5 double scattered proton beam—a double scattered proton beam with a maximum range of 10.5 cm and a modulated depth of 5 cm, meaning that the Spread-out Bragg peak (SOBP) began roughly at a depth of 5.5 cm. In this configuration, the D2 and D10 positions corresponded to the entrance and terminal portions of the SOBP, respectively. After exposure to radiation, cells were trypsinized into a single cell suspension and re-plated at various densities without nanoparticulate genistein. About two weeks later (typically 13 to 16 days, depending on colony size), plates were rinsed and stained using crystal violet/ethanol, and colonies were enumerated using an Oxford Optronix automated colony counter with a minimum threshold size of 50 cells to define a colony. […]
as §3

[2] = system: MRC5 normal human lung fibroblasts; assay: Clonogenic cell survival after radiation, MRC5 cells; assay type: cell-based; conditions: for Genistein (D0): 5 μM nanoparticulate genistein 24 hours before radiation; for DMF (Dose Modifying Factor): 5 μM nanoparticulate genistein vs vehicle
Description: as §1, §2, §3

[3] = mice; compared to formulations containing non-micronized genistein; cited from earlier work
[4] = canines; compared to formulations containing non-micronized genistein; cited from earlier work
[5] = humans; compared to formulations containing non-micronized genistein; cited from earlier work
[6] = High LET Protons (D10, 10 cm depth)

O=c1c(-c2ccc(O)cc2)coc2cc(O)cc(O)c12 [Genistein, 5,7-dihydroxy-3-(4-hydroxyphenyl)-chromen-4-one]
Genistein (D0) [1, 6]: 2.23 | DMF (Dose Modifying Factor) ([1]; High LET Protons): 1.04 | Genistein (D0) ([1]; X-Rays (250 KVp), D0 = dose reducing surviving fraction by 1/e): 2.41 | DMF (Dose Modifying Factor) ([1]; X-Rays): 1.07 | Genistein (D0) (H1299 human NSCLC cells; [6]): 3.03 | DMF (Dose Modifying Factor) (H1299 human NSCLC cells; High LET Protons, radiosensitization defined as DMF>1.1): 1.35 | Genistein (D0) (H1299 human NSCLC cells; X-Rays (250 KVp)): 4.28 | DMF (Dose Modifying Factor) (H1299 human NSCLC cells; X-Rays, radiosensitization defined as DMF>1.1): 0.97 | DMF (Dose Modifying Factor) (H1299 human NSCLC cells; lower LET protons (D2, 2 cm depth)): 1.09 | Genistein (D0) [2, 6]: 1.26 | DMF (Dose Modifying Factor) ([2]; High LET Protons): 1.07 | Genistein (D0) ([2]; X-Rays (250 KVp)): 1.38 | DMF (Dose Modifying Factor) ([2]; X-Rays): 1.01 | oral bioavailability [3]: increased oral bioavailability | oral bioavailability [4]: increased oral bioavailability | oral bioavailability [5]: increased oral bioavailability
